Where two headings read alike, the source gives them in different places. No end group written: not given here.
Target: T1, APC (Homo sapiens, UniProt P04070)
T1 construct: begins at amino acid residue position 158 and ends at 419; The light chain is 155 amino acid residues in length; tissue Factor IX concentrate from Immuno AG, Vienna; thrombin from Enzyme Research Laboratories
Test: APC anticoagulant activity, APTT and Xa-1-stage coagulation assays (mean or both)
Type: biochemical
Settings: for IC50: final peptide concentration at which 50% inhibition of APC activity was observed; for inhibition at 500 µM: 500 μM peptide, mean of APTT and Xa-1-stage assays, 0 = no observable effect ± 10%
Description: The effect of the synthetic peptides on APC anticoagulant activity were determined using the APTT assay in the presence of either normal citrate anticoagulated plasma (NHP) or protein S depleted plasma (PSDP). The assays were performed essentially as described. See Marlar et al., Blood, 59:1067-1072 […]; Suzuki et al., J. Biol. Chem., 258:163-168 (1983); Gruber et al., Blood, 73:639-642 (1989); Ohlin et al., Biochem., 29:644-651 (1990). NHP was purchased from George King Bio-Medical, Inc. (Overland Park, Kans.). PSDP was prepared from a normal human citrate-anticoagulated plasma pool from ten healthy donors. Protein S was immunodepleted from the NHP by immunoaffinity chromatography of NHP over an anti-protein S antibody column to form PSDP. The anti-protein S antibody column was prepared by coupling 100 mg of a monoclonal, high-affinity, calcium-independent anti-PS antibody, designated S7, to 30 ml of CNBr-activated Sepharose 4B (Pharmacia) as described in Example 2c1).
For the APTT assay, APC was prepared as described in Example 2c2). […] The concentration of the APC used in the assay was initially optimized with respect to the sensitivity of the assay towards APC-induced prolongation of clotting time compared to clotting time without APC.
Once the optimal concentration of APC was determined, peptides from Table 2 were then separately admixed for a final concentration of 500 μM with 10 nM APC in 100 μl of TBS-BSA at pH 7.4 to form peptide-APC admixtures. The resulting admixtures were maintained for seven minutes at 37° C. Separate aliquots of peptides maintained under the same conditions in the absence of APC served as controls for the inhibitory effect of synthetic peptides on APC anticoagulant activity. After the maintenance period, 100 μl of NHP and 100 μl APTT-reagent Thrombosil (Ortho Diagnostics, Raritan, N.J.) were admixed into each peptide admixture and maintained for 200 seconds at 37° C. to form a pre-coagulation admixture. In some experiments, PSDP was used in the place of NHP to determine the effect of Protein S on the assay system. Coagulation was then initiated by the admixture of 100 μl of 30 mM CaCl2 in TBS prewarmed to 37° C. to each of the pre-coagulation admixtures. The time for clot formation was measured by an Electra 700 Automatic Coagulation Timer (Medical Laboratory Automation, Inc., Mount Vernon, N.Y.). Each peptide's effect was determined in duplicate.
The synthetic peptides listed in Table 4 are presented in the same order as listed in Table 2, i.e., are reproduced from Table 2. […] For peptides at a concentration of 500 μM that inhibited at least 50% of APC anticoagulant activity, analysis of dose-response was subsequently conducted. The column in Table 4 labeled "Inhibition of APC" represents the inhibition of APC anticoagulant activity measured with 500 μM peptide.
For testing the inhibition of the synthetic peptides on APC activity described above, Xa-1-stage coagulation assays were also performed as described. See Seegers et al., Thrombosis Res., 13:233-243 (1978); Marlar et al., supra; and Walker et al., J. Biol. Chem. 265:1484-1489 (1990).

[1] = final peptide concentration at which 90% inhibition of APC activity was observed, read-out: IC90

T1 sequence (P04070 212-461): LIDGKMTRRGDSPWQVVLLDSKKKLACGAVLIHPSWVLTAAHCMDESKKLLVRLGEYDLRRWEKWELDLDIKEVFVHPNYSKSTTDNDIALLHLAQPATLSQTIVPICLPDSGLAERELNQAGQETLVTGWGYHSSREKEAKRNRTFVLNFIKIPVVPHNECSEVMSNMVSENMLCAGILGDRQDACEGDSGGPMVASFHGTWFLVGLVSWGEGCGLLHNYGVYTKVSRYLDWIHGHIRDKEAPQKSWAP
T1 sequence (P04070 43-197): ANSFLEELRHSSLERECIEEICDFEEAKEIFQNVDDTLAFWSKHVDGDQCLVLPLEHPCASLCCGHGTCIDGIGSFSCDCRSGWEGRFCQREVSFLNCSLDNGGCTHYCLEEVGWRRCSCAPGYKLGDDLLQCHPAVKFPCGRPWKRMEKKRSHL

| Substance | IC90 [µM] | IC50 [µM] | inhibition at 500 µM [%] | IC90 [1] [µM] |
| --- | --- | --- | --- | --- |
| KRNRTFVLNFIKIPV-NH2 [peptide-(311-325), KRNRTFVLNFIKIPV] | 50 | 20 | – | – |
| SGLLHNYGVYTKVSR-NH2 [peptide-(384-398), -SGLLHNYGVYTKVSR] | – | – | 60 | > 500 |
| YGVYTKVSRYLDWIH-NH2 [peptide-(390-404), YGVYTKVSRYLDWIH] | – | 5 | 100 | 40 |

Source: patent US5279956A, “Activated protein C polypeptides and anti-peptide antibodies, diagnostic methods and systems for inhibiting activated protein C” (The Scripps Research Institute, priority 1991, dated 1994)
